Measured values taken from US20110046482A1, “METHODS FOR REDUCING TOXICITIES ASSOCIATED WITH MEDICAL PROCEDURES EMPLOYING RADIOGRAPHIC CONTRAST AGENTS” (OREGON HEALTH & SCIENCE UNIVERSITY, priority 2006, published 2011).

Assays:
[1] = tested on: cellular apoptosis proteins; test: NAC-mediated inhibition of cisplatin-induced apoptosis, Western Blot analysis; format: cell-based
Procedure: Thus, the ability of NAC to modulate cellular apoptosis proteins was evaluated by Western Blot analysis.

cisplatin nephrotoxicity = test: Cisplatin nephrotoxicity after NAC IV, PO or IA in the descending aorta; format: in vivo; conditions: rats
Procedure: IV NAC was nephroprotective at a dose of 400 mg/kg but not at a lower dose of 50 mg/kg.

[2] = Blood/serum levels of NAC and thiols by HPLC after IV or PO NAC; format: in vivo
Procedure: NAC is known to enhance de novo glutathione synthesis, and may also impact levels of other thiols. […] In contrast to the IV results, the group given NAC 1200 mg/kg by the PO route had very low levels of serum NAC (0.12±0.12) at 15 min or 60 min after infusion.

[3] = Effect of route of administration on biodistribution of radiolabelled NAC; format: in vivo; conditions: rats
Procedure: Radiolabelled NAC in combination with unlabeled NAC (140 mg/kg) was administered to rats with the following routes of infusion: IV; IA into the right carotid artery for brain infusion; aortic infusion (IA infusion via the left external carotid artery with left internal artery occlusion) to avoid brain infusion; and IA (right carotid) with osmotic Blood Brain Barrier Disruption (BBBD) to maximize delivery to the brain.

[4] = N-acetylcysteine dose escalation, IV at time 0, 4 and 8 hours, followed for two weeks
Procedure: Rats were given NAC IV at time 0, 4 hours, and 8 hours and were then followed for two weeks.

[5] = tested on: cisplatin-induced nephrotoxicity; test: Cisplatin (10 mg/kg IP) nephrotoxicity model, BUN, creatinine and weight 3 days after treatment; format: in vivo; conditions: rats
Procedure: There are few animal models of contrast-induced nephropathy, and the reported models are not easily reproducible.
Rats were tested for renal toxicity 3 days after treatment by measuring serum concentrations of BUN and creatinine (CR).

[6] = tested on: cumulative cisplatin nephrotoxicity; test: Multiple low dose cisplatin nephrotoxicity model; format: in vivo; conditions: rats
[7] = Clearance of NAC, blood thiol concentration every 15 minutes by colorimetric kit; format: in vivo; conditions: rat, intravenous, other: IA into the descending aorta, IV or IA into the descending aorta, 140, 400, 1000 and 1200 mg/kg, all doses
Procedure: NAC was administered either IV or IA into the descending aorta, and blood samples were assessed for thiol concentration every 15 minutes using a colorimetric kit. The NAC doses tested were 140, 400, 1000, and 1200 mg/kg.

[8] = cisplatin 10 mg/kg IP + NAC 400 mg/kg IP
[9] = cisplatin 10 mg/kg IP + NAC 400 mg/kg PO

Structure (SMILES): CC(=O)N[C@@H](CS)C(=O)O [NAC, N-acetylcysteine]
- protection against cisplatin cytotoxicity ([1]; NAC 8 hours after cisplatin): minimal
- effect on cytotoxic effects of cisplatin (apoptosis proteins) ([1]; NAC added concurrent with cisplatin or up to 2 hours after): reversed the cytotoxic effects of cisplatin
- protection against cisplatin cytotoxicity ([1]; NAC delayed more than 2 hours): protection was reduced
- nephroprotection (cisplatin nephrotoxicity; NAC 50 mg/kg IA in the descending aorta): significant nephroprotection
- nephroprotection (cisplatin nephrotoxicity; NAC 50 mg/kg IV): not nephroprotective
- nephroprotection (cisplatin nephrotoxicity; NAC 400 mg/kg IV): nephroprotective
- protection against cisplatin nephrotoxicity (cisplatin nephrotoxicity; NAC 400 mg/kg PO via nasogastric tube, cisplatin 10 mg/m^2): not protective
- time to renal failure (cisplatin nephrotoxicity; NAC 400 mg/kg PO, cisplatin 10 mg/m^2): ≤ 3 days
- blood level of NAC (mean) ([2]; IV 100 mg/kg): 380 ± 160 µM
- blood level of NAC (mean) ([2]; IV 400 mg/kg): 2190 ± 190 µM
- blood level of NAC (mean) ([2]; IV 1200 mg/kg): 6220 ± 180 µM
- serum concentration of metabolite oxidized NAC relative to NAC alone ([2]; IV, 15 min after administration): approximately double
- serum NAC level ([2]; PO 1200 mg/kg, at 15 min or 60 min after infusion): 0.12 ± 0.12 mM
- radiolabel in brain ([3]; NAC 140 mg/kg, IA right carotid artery): high levels of radiolabel in the right cerebral hemisphere
- radiolabel in right cerebral hemisphere relative to IA without BBBD ([3]; NAC 140 mg/kg, IA right carotid with osmotic BBBD): doubled
- brain delivery of NAC ([3]; NAC 140 mg/kg, aortic infusion): negligible levels
- delivery to kidney ([3]; NAC 140 mg/kg, aortic infusion): increased systemic delivery to kidney
- amount of NAC found in the brain ([3]; radiolabelled + unlabeled NAC 140 mg/kg, IV): negligible amounts
- safety/tolerability ([4]; rat, in vivo, iv, 1200 mg/kg): safe and well-tolerated
- weight loss and signs of toxicity ([4]; rat, in vivo, iv, 1200 mg/kg): no weight loss and no signs of toxicity
- tolerability of infusions ([4]; rat, in vivo, iv, 1500 mg/kg): tolerated the infusions well
- loss of body weight ([4]; rats, NAC IV 1500 mg/kg×3 (0, 4, 8 hours), within 2-3 days of infusion): 5%-10%
- BUN [5, 8]: 131.8 ± 8.2 mg/dL
- CR (creatinine) [5, 8]: 2.3±0.38
- BUN ([5]; cisplatin 10 mg/kg IP + NAC 400 mg/kg IV, p<0.0001): 26.33 ± 6.76 mg/dL
- CR (creatinine) ([5]; cisplatin 10 mg/kg IP + NAC 400 mg/kg IV, p<0.0013): 0.47±0.15
- BUN [5, 9]: 123.3 ± 8.2 mg/dL
- CR (creatinine) [5, 9]: 1.77±0.21
- percent weight loss over the test period versus the other groups ([5]; cisplatin + IV NAC, p<0.0001): significantly lower percent weight loss
- protection against nephrotoxicity ([6]; NAC 800 mg/kg IP 30 minutes before each cisplatin treatment): no protective effect
- protection against nephrotoxicity ([6]; NAC 800 mg/kg IV 30 minutes before each cisplatin treatment): protective against the cumulative nephrotoxicity
- half-life [7]: < 15 min
